Results on one substance are retold here after US20240301218A1, “Polymeric Antifouling Coating with Antimicrobial Peptides” (THE UNIVERSITY OF BRITISH COLUMBIA, priority 2021, published 2024).

No end group written: not given here.

One test concerns P. aeruginosa (PAO1.lux). Briefly: 96-well plate screening of surface conjugated AMPs for biofilm inhibition. Format: cell-based. The conditions noted are these: AMP tethered on BA coating, polypropylene 96-well plate, vs uncoated pp. The protocol:
(§1) Screening and Identification of Surface Conjugated AMPs with Anti-Biofilm Activity on a 96-Well Plate Bioluminescence-tagged bacterial strains used in this study included S. aureus (Xen36), P. aeruginosa (PAO1.lux), E. coli (E38.lux), and S. saprophyticus (ATCC 15305). Bacteria were cultured in LB, with shaking at 250 rpm, at 37° C. Bacterial growth was monitored using a spectrophotometer at the optical density of 600 nm (OD600). S. aureus Xen36 was purchased from PerkinElmer Inc.™ while P. aeruginosa PAO1.lux and E. coli E38.lux were generated by conjugating in plasmids that constitutively-expressed lux reporter genes^[40]. The biofilm inhibitory activity of AMPs conjugated onto coated polypropylene surfaces were evaluated in a static microtitre plate assay as previously described with some modifications^[41]. For all experiments, 96-well Costar™ polypropylene plates (Corning™) were used. An overnight culture of selected bacterial strains in LB was diluted to an OD600=0.01 in TSB or basal medium 2 (BM2) supplemented with 0.1% or 0.4% glucose and 0.5 mM MgSO4, (the biofilm growth medium for different bacteria is listed in TABLE 1).
(§2) For inhibition experiments, 100 μL of the diluted overnight culture was added to each well in the plate coated with control coating and AMP coating, respectively. After overnight growth under static condition at 37° C., planktonic cells were removed, adhered biomass rinsed three times with distilled water and subsequently the remaining adhered total biomass was quantified by measuring the luminescence (Total white light) using the Synergy H1™ multimode microtitre plate reader (BioTek™). The remaining adhered S. saprophyticus biomass was quantified using the crystal violet (CV) staining. Briefly, each well was added and incubated with 125 μL of 0.1% (v/v) CV solution for 30 minutes at room temperature with moderate shaking. Then, CV was discarded, and each well was rinsed three times with distilled water. The remaining CV stain was resuspended in 150 μL of 70% ethanol for 30 minutes at room temperature with moderate shaking and then quantified by measuring OD59, using the Synergy H1™ multimode microplate plate reader (BioTek™). The percent biofilm inhibition was calculated in relation to the amount of biofilm grown in the absence of the coating (defined as 100%) and the media sterility control (defined as 0% growth). The experiment was repeated 3 times with 3 technical replicates per biological replicate.

A further test relates to E. coli (E38.lux). The test is described as above. Format: cell-based. The conditions noted are these: AMP tethered on BA coating, polypropylene 96-well plate, vs uncoated pp. The procedure: as §1, §2
A further test relates to S. aureus (Xen36). The description is as above. It counts as cell-based. The conditions noted are these: AMP tethered on BA coating, polypropylene 96-well plate, vs uncoated pp. The procedure:
as §1, §2

In the next test the test system is S. epidermidis. Briefly: Antimicrobial activity of BA-AMPs coating against planktonic bacteria. It counts as cell-based. The conditions noted are these: MHB medium, 24 h, coated PP wells. The protocol: The uhPDMA was prepared at a concentration of 36 mg mL^−1 in sodium acetate buffer (50 mM, pH=5). Dopamine was freshly prepared at a concentration of 12 mg mL^−1 in sodium acetate buffer (50 mM, pH=5) before each experiment. Sodium periodate (NaIO4) was freshly prepared at a concentration of 28 mg mL-1 in sodium acetate buffer (50 mm, pH=5). The dopamine solution was then mixed with uhPDMA solution with a volume ratio of 1:5 (dopamine:uhPDMA). Sodium periodate solution was then added to generate a final concentration of uhPDMA at 30 mg mL^−1, dopamine at 2 mg mL^−1, and NaIO4 at 0.9 mg mL^−1. Mixed solution (200 μL) was added into the wells of 96-well polypropylene plate. The plate was placed onto a rocking platform with shaking at 50 rpm for 2 hr. The coated plate was then rinsed by Milli-Q™ water and dried for further characterization. Peptide solutions (200 μL, 0.25 mg/mL in 10 mM phosphate buffer, pH ˜8) were added into the wells and incubated for 24 h. The peptide-conjugated plate were rinsed with Milli-Q™ water thoroughly and dried under argon flow. […] After 24 hrs growth under shaking condition at room temperature, bacteria culture (100 μL) was transferred to sterile clear polystyrene plate and the optical density was read using UV-vis spectrometer at wavelength 595 nm. […]

The subject of the next test is P. aeruginosa. The source says:
(§3) Ultra-high molecular weight poly(N,N-dimethylacrylamide) (uhPDMA) and high molecular weight poly(N,N-dimethylacrylamide) (hPDMA) were synthesized by atom transfer radical polymerization 391. N-(3-Aminopropyl) methacrylamide hydrochloride (APMA) (98%) was purchased from Polysciences™, USA and was used as supplied. All other reagents including 1, 1, 4, 7, 10, 10-hexamethyl triethylene tetramine (HMTETA) (97%), Tris[2-(dimethylamino)ethyl]amine (Me6TREN) 97%, methyl 2-chloropropionate (97%), CuCl (99%), CuCl2 (99%), 1-thioglycerol (97%) were purchased from Sigma-Aldrich™ (Oakville, ON). A single-side-polished silicon wafer (University Wafer™, Boston, MA) deposited with titanium was prepared by e-beam evaporation of titanium. The process was progressed in a home-assembled Evaporator 2000™ system equipped with a quartz crystal microbalance to monitor the film thickness and a cryo pump to reach high-vacuum (10^−7-10^−6 Torr) condition. After deposition, the substrates were washed with Milli-Q water™, dried via a nitrogen gun, and stored for further usage. SurFlash™I.V. Catheter Cat. #SR*FF1451, #SR*FF2419 (14 Gauge and 24 Gauge) made of polyurethane (PU), were purchased from Terumo™. […] Pure products were finally characterized by analytical reverse phase high performance liquid chromatography (RP-HPLC) and liquid chromatography-mass spectrometry (LC-MS). The broth microdilution method with minor modifications for cationic peptides was used for measuring the MICs of peptides.

A further test concerns S. aureus.
Source text: as §3

For the next test, the system named is E. coli.
Source text: as §3

The test system of a further test is S. saprophyticus.
Source text: as §3

In the case of “RRWRIVVIRVRRC-NH2 [E6, RRWRIVVIRVRRC-NH2]”, the “reduction of biofilm formation” value in the test on P. aeruginosa (PAO1.lux) was determined as 98.2%; in the test on E. coli (E38.lux), 91.8%; with S. aureus (Xen36), 93%. The “killing of planktonic S. epidermidis” value in the test with S. epidermidis is recorded as “complete killing”. In the test on P. aeruginosa, the “MIC P. aeruginosa” value turned out to be 32 µg/mL. Also, the “MIC S. aureus” value in the test on S. aureus came out at 64 µg/mL. Also, the “MIC E. coli” value against E. coli is 8 µg/mL. In addition, in the test with S. saprophyticus, the “MIC S. saprophyticus” value worked out at 4 µg/mL.
